Source: patent US20220041681A1 (MEDIMMUNE LIMITED, priority 2016, published 2022)

Test system: Healthy volunteer
Test: Phase 1 single-ascending dose study
Conditions: for Median glucose peak after breakfast: 1 hour post breakfast, 3.5 hours post dose; for Median glucose peak after dinner: 1 hour post dinner, […] post dose; for Median glucose peak after lunch: 1 hour post lunch, 7 hours post dose; for Overall daily food intake compared with placebo: across breakfast, lunch and dinner
[1] = Total G933, N = 36, subjects n (%)

CCCCCCCCCCCCCCCC(=O)N[C@@H](CCC(=O)NCCCC[C@H](NC(=O)[C@H](CC(=O)O)NC(=O)[C@H](CO)NC(=O)C(NC(=O)[C@H](Cc1ccccc1)NC(=O)C(NC(=O)CNC(=O)[C@H](CCC(N)=O)NC(=O)[C@H](CO)NC(=O)[C@@H](N)Cc1cnc[nH]1)[C@@H](C)O)[C@@H](C)O)C(=O)N[C@@H](CO)C(=O)N[C@@H](CCC(=O)O)C(=O)N[C@@H](Cc1ccc(O)cc1)C(=O)N[C@@H](CC(C)C)C(=O)N[C@@H](CC(=O)O)C(=O)N[C@@H](CO)C(=O)N[C@@H](CCC(=O)O)C(=O)N[C@@H](CCCNC(=N)N)C(=O)N[C@@H](C)C(=O)N[C@@H](CCCNC(=N)N)C(=O)N[C@@H](CC(=O)O)C(=O)N[C@@H](Cc1ccccc1)C(=O)N[C@H](C(=O)N[C@@H](C)C(=O)N[C@@H](Cc1c[nH]c2ccccc12)C(=O)N[C@@H](CC(C)C)C(=O)N[C@@H](CCC(=O)O)C(=O)N[C@@H](C)C(=O)NCC(=O)NCC(=O)O)C(C)C)C(=O)O (some centres unmarked) [Peptide G933]
TEAE: Gastrointestinal Disorders (150 μg, N = 6, subjects n (%)): 5 (83.3%)
TEAE: Headache (150 μg, N = 6, subjects n (%)): 1 (16.7%)
TEAE: Immune System Disorders (150 μg, N = 6, subjects n (%)): 0
TEAE: Injury associated with device (150 μg, N = 6, subjects n (%)): 0
TEAE: Injury poisoning and procedural complications (150 μg, N = 6, subjects n (%)): 0
TEAE: Metabolism and nutrition disorders (150 μg, N = 6, subjects n (%)): 2 (33.3%)
TEAE: Musculoskeletal and connective tissue disorders (150 μg, N = 6, subjects n (%)): 0
TEAE: Musculoskeletal chest pain (150 μg, N = 6, subjects n (%)): 0
TEAE: Nasopharyngitis (150 μg, N = 6, subjects n (%)): 0
TEAE: Nausea (150 μg, N = 6, subjects n (%)): 4 (66.7%)
TEAE: Nervous system disorders (150 μg, N = 6, subjects n (%)): 1 (16.7%)
TEAE: Oropharyngeal pain (150 μg, N = 6, subjects n (%)): 1 (16.7%)
TEAE: Procedural dizziness (150 μg, N = 6, subjects n (%)): 0
TEAE: Respiratory, thoracic and mediastinal disorders (150 μg, N = 6, subjects n (%)): 1 (16.7%)
TEAE: Seasonal allergy (150 μg, N = 6, subjects n (%)): 0
TEAE: Subjects with at least one event (150 μg, N = 6, subjects n (%)): 5 (83.3%)
TEAE: Ventricular extrasystoles (150 μg, N = 6, subjects n (%)): 0
TEAE: Vomiting (150 μg, N = 6, subjects n (%)): 4 (66.7%)
vomiting episodes (300 μg dose, 5 subjects): Thirty
tolerability (300 μg single SC dose): not tolerated
TEAE: Abdominal distension (300 μg, N = 6, subjects n (%)): 0
TEAE: Abdominal pain (300 μg, N = 6, subjects n (%)): 0
TEAE: Application site erosion (300 μg, N = 6, subjects n (%)): 0
TEAE: Arrhythmia (300 μg, N = 6, subjects n (%)): 0
TEAE: Atrioventricular block second degree (300 μg, N = 6, subjects n (%)): 0
TEAE: Cardiac Disorders (300 μg, N = 6, subjects n (%)): 1 (16.7%)
TEAE: Decreased appetite (300 μg, N = 6, subjects n (%)): 0
TEAE: Diarrhea (300 μg, N = 6, subjects n (%)): 0
TEAE: Dizziness (300 μg, N = 6, subjects n (%)): 1 (16.7%)
TEAE: Gastrointestinal Disorders (300 μg, N = 6, subjects n (%)): 5 (83.3%)
TEAE: Headache (300 μg, N = 6, subjects n (%)): 0
TEAE: Immune System Disorders (300 μg, N = 6, subjects n (%)): 0
TEAE: Injury associated with device (300 μg, N = 6, subjects n (%)): 1 (16.7%)
TEAE: Injury poisoning and procedural complications (300 μg, N = 6, subjects n (%)): 0
TEAE: Metabolism and nutrition disorders (300 μg, N = 6, subjects n (%)): 0
TEAE: Musculoskeletal and connective tissue disorders (300 μg, N = 6, subjects n (%)): 0
TEAE: Musculoskeletal chest pain (300 μg, N = 6, subjects n (%)): 0
TEAE: Nasopharyngitis (300 μg, N = 6, subjects n (%)): 0
TEAE: Nausea (300 μg, N = 6, subjects n (%)): 3 (50.0%)
TEAE: Oropharyngeal pain (300 μg, N = 6, subjects n (%)): 0
TEAE: Procedural dizziness (300 μg, N = 6, subjects n (%)): 0
TEAE: Respiratory, thoracic and mediastinal disorders (300 μg, N = 6, subjects n (%)): 0
TEAE: Seasonal allergy (300 μg, N = 6, subjects n (%)): 0
TEAE: Subjects with at least one event (300 μg, N = 6, subjects n (%)): 5 (83.3%)
TEAE: Ventricular extrasystoles (300 μg, N = 6, subjects n (%)): 1 (16.7%)
TEAE: Vomiting (300 μg, N = 6, subjects n (%)): 5 (83.3%)
TEAE: Abdominal distension [1]: 2 (5.6%)
TEAE: Abdominal pain [1]: 1 (2.8%)
TEAE: Application site erosion [1]: 1 (2.8%)
TEAE: Arrhythmia [1]: 1 (2.8%)
TEAE: Atrioventricular block second degree [1]: 1 (2.8%)
TEAE: Cardiac Disorders [1]: 3 (8.3%)
TEAE: Decreased appetite [1]: 2 (5.6%)
TEAE: Diarrhea [1]: 1 (2.8%)
TEAE: Dizziness [1]: 5 (13.9%)
TEAE: Gastrointestinal Disorders [1]: 12 (33.3%)
TEAE: Headache [1]: 4 (11.1%)
TEAE: Immune System Disorders [1]: 1 (2.8%)
TEAE: Injury associated with device [1]: 1 (2.8%)
TEAE: Injury poisoning and procedural complications [1]: 1 (2.8%)
TEAE: Metabolism and nutrition disorders [1]: 2 (5.6%)
TEAE: Musculoskeletal and connective tissue disorders [1]: 1 (2.8%)
TEAE: Musculoskeletal chest pain [1]: 1 (2.8%)
TEAE: Nasopharyngitis [1]: 1 (2.8%)
TEAE: Nausea [1]: 8 (22.2%)
TEAE: Oropharyngeal pain [1]: 1 (2.8%)
TEAE: Procedural dizziness [1]: 1 (2.8%)
TEAE: Respiratory, thoracic and mediastinal disorders [1]: 1 (2.8%)
TEAE: Seasonal allergy [1]: 1 (2.8%)
TEAE: Subjects with at least one event [1]: 21 (58.3%)
TEAE: Ventricular extrasystoles [1]: 1 (2.8%)
TEAE: Vomiting [1]: 10 (27.8%)
severity of treatment-emergent adverse events (all doses): Grade 1 (mild) or Grade 2 (moderate)
overall daily food intake (all doses compared with placebo, in words): reduction in overall daily food intake
plasma glucose levels (all doses, around meal times, in words): glucose lowering effect
ADA positive subjects (baseline or post-baseline): No subjects were ADA positive
tolerability with respect to nausea, vomiting, tachycardia and blood pressure (doses up to 150 μg): acceptable
geometric mean t1/2 (single SC dose): 10 to 12 h
Median diastolic BP maximum post dose change (single dose 5 μg): 13 mm Hg
Number of subjects with vomiting (single dose 5 μg): 0(0)
vomiting episodes (single dose 5 μg): 0(0)
Median glucose peak after breakfast (single dose 5 μg): 6.2 mmol/L
Median glucose peak after dinner (single dose 5 μg): 7.0 mmol/L
Median glucose peak after lunch (single dose 5 μg): 4.9 mmol/L
Overall daily food intake compared with placebo (single dose 5 μg): 100%
Median diastolic BP maximum post dose change (single dose 10 μg): 8 mm Hg
Number of subjects with vomiting (single dose 10 μg): 0(0)
vomiting episodes (single dose 10 μg): 0(0)
Median glucose peak after breakfast (single dose 10 μg): 5.8 mmol/L
Median glucose peak after dinner (single dose 10 μg): 6.0 mmol/L
Median glucose peak after lunch (single dose 10 μg): 5.1 mmol/L
Overall daily food intake compared with placebo (single dose 10 μg): 100%
Number of subjects with vomiting (single dose 30 μg): 0(0)
vomiting episodes (single dose 30 μg): 0(0)
Median glucose peak after breakfast (single dose 30 μg): 5.4 mmol/L
Median glucose peak after dinner (single dose 30 μg): 5.2 mmol/L
Median glucose peak after lunch (single dose 30 μg): 4.4 mmol/L
Overall daily food intake compared with placebo (single dose 30 μg): 96%
Median diastolic BP maximum post dose change (single dose 100 μg): 16 mm Hg
Number of subjects with vomiting (single dose 100 μg): 1(1)
vomiting episodes (single dose 100 μg): 1(1)
Median glucose peak after breakfast (single dose 100 μg): 5.5 mmol/L
Median glucose peak after dinner (single dose 100 μg): 5.2 mmol/L
Median glucose peak after lunch (single dose 100 μg): 4.7 mmol/L
Overall daily food intake compared with placebo (single dose 100 μg): 82%
Median diastolic BP maximum post dose change (single dose 150 μg): 15 mm Hg
Number of subjects with vomiting (single dose 150 μg): 4
vomiting episodes (single dose 150 μg): 9
Median glucose peak after breakfast (single dose 150 μg): 5.1 mmol/L
Median glucose peak after dinner (single dose 150 μg): 5.2 mmol/L
Median glucose peak after lunch (single dose 150 μg): 5.1 mmol/L
Overall daily food intake compared with placebo (single dose 150 μg): 60%
Median diastolic BP maximum post dose change (single dose 300 μg): 19 mm Hg
Number of subjects with vomiting (single dose 300 μg): 5
vomiting episodes (single dose 300 μg): 30
Median glucose peak after breakfast (single dose 300 μg): 4.7 mmol/L
Median glucose peak after dinner (single dose 300 μg): 4.9 mmol/L
Median glucose peak after lunch (single dose 300 μg): 5.1 mmol/L
Overall daily food intake compared with placebo (single dose 300 μg): 23%
